# Measurements reported in patent publication US20050277612A1, “Methods, compositions and compound assays for inhibiting amyloid-beta protein production” (priority 2004, published 2005).
# Experiments:
# SPHK2 RNA = SPHK2 RNA levels via real time PCR in KD virus infected cells; assay type: cell-based, Homo Sapiens; settings: infected SH-SY5Y cells, normalized to household keeping genes (GAPDH)
# Description: Upon identification of protein kinase involved of APP processing, it is essential to evaluate whether the kinase is expressed in the tissue and cells of interest. This can be achieved by measuring RNA and/or protein levels. In recent years, RNA levels are being quantified through real time PCR technologies, whereby the RNA is first transcribed to cDNA and then the amplification of the cDNA of interest is monitored during a PCR reaction. The amplification plot and the resulting Ct value are indicators for the amount of RNA present in the sample. To assess whether SPHK cDNA is expressed in the human brain, real time PCR with GAPDH specific primers and specific primers for polynucleotides coding for the SPHK polypeptide (Table 3) is performed on human total brain, human cerebral cortex, and human hippocampal total RNA (BD Biosciences). GAPDH RNA is detected with a Taqman probe, while for the polynucleotides of the invention SybrGreen is used. 40 ng of RNA is transcribed to DNA using the MultiScribe Reverse Transcriptase (50 U/μl) enzyme (Applied BioSystems). […]
# (§1) Adenoviral knock down constructs are used to transduce mouse, rat or human primary neuronal cells and/or cell lines (e.g. HEK293, SH-SY5Y, IMR-32, SK-N—SH, SK-N-MC, H4, CHO, COS, HeLa) stably over-expressing APPwt or not. […] In addition, RNA is isolated from these infected cells and SPHK2 RNA levels are determined via real time PCR. […]
# [1] = system: amyloid beta 1-42 levels in the conditioned medium of SH-SY5Y cells; assay: Amyloid beta 1-42 ELISA after adenoviral knock down of SPHK2; assay type: cell-based; settings: SH-SY5Y cells co-infected with adenoviruses expressing APPwt and the KD sequence, compared to GL2 KD virus infected cells
# Procedure: Cells seeded in collagen-coated plates at a cell density of 15000 cells/well (384 well plate) in DMEM (10% FBS), are infected 24 h later with 1 μl or 0.2 μl of adenovirus (corresponding to an average multiplicity of infection (MOI) of 120 and 24 respectively). The following day, the virus is washed away and DMEM (25 mM Hepes; […]) is added to the cells. Amyloid-beta peptides are allowed to accumulate during 24 h. The ELISA plate is prepared by coating with a capture antibody (JRF/cAbeta42/26) (obtained from M Mercken, Johnson and Johnson Pharmaceutical Research and Development, B-2340 Beerse, Belgium) overnight in buffer 42 (Table 2) at a concentration of 2.5 μg/ml. The excess capture antibody is washed away the next morning with PBS and the ELISA plate is then blocked overnight with casein buffer (see Table 2) at 4° C. […] Following the removal of excess detection antibody by a wash with PBS-Tween20 and PBS, HRP activity is detected via addition of luminol substrate (Roche), which is converted into a chemiluminescent signal by the HRP enzyme. […]
# as §1
sequence,measurement,setting,value
ACTTCTGCATCTACACCTACC [SEQ ID NO: 6],SPHK2 RNA levels,SPHK2 RNA,reduced
same,amyloid beta 1-42 levels in the conditioned medium,[1],reduction
